Experimental data as given in article PMC12381739, “Druglike Molecular Degraders of the Oncogenic RNA-Binding Protein HuR” (JACS Au, 2025).

Target: HuR (Homo sapiens, UniProt Q15717)
Experiment: Fluorescence binding assay using intrinsic fluorescence of the PROTAC with titrated HuR protein
Conditions: fixed 100 μM degrader, increasing HuR; fluorescence rises over 0.0075–0.1 nM and 0.125–1 nM
Experimental: To elucidate the mechanism underlying the observed biphasic degradation pattern, we generated a docking model using the Schrödinger software. […] This preferential binding correlates with the initial phase of degradation observed at low degrader concentrations (5 nM to 100 nM; Figures B and B and ). At higher degrader concentrations (e.g., 10 μM), different complex engagement may occur at the P2 RNA-binding pocket. […] Unlike the previous displacement assay–which monitored competition between labeled RNA and HuR–we utilized the intrinsic fluorescence of the PROTAC derivative at a fixed concentration while titrating HuR protein. This approach allowed us to detect fluorescence changes corresponding to HuR binding events. […] Fluorescence increased over two separate concentration ranges–0.0075–0.1 nM and 0.125–1 nM–with a clear dip between 0.1 and 0.125 nM. […]
As part of the dual-binding evaluation, Pro-HuR3 fluorescence was first characterized across a concentration range (1–100 μM; 1, 2, 5, 10, 20, 50, and 100 μM). The assays were performed in PBS buffer (20 mM sodium phosphate, 150 mM NaCl, 1 mM dithiothreitol, 0.05% PLURONIC-127, 15% DMSO) at 293 K. Fluorescence spectra were recorded using the Synergy H1 Hybrid Multi-Mode Microplate Reader (Biotek, Agilent), with excitation and emission scans identifying optimal wavelengths of 405–415 nm (excitation) and 520 nm (emission), respectively. […]

HuR, sequence (Q15717 whole entry): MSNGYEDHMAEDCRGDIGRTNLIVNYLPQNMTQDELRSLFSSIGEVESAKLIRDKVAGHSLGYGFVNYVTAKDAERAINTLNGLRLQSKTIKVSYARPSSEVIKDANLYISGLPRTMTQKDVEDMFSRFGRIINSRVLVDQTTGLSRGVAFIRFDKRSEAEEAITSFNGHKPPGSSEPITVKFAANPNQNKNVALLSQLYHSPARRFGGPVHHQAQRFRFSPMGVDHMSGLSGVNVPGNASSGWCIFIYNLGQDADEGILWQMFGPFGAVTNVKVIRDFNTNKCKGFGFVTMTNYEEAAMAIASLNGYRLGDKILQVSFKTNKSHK

`O=C1CCC(N2C(=O)c3cccc(NCc4cn(-c5ccc6sc(C(=O)O)cc6c5)nn4)c3C2=O)C(=O)N1` (stereo not shown) [PRO-HuR3] was tested, and the “binding response on HuR titration (intrinsic fluorescence)” value was “two distinct IC50 values”.
